This note sets out measurements from article PMC6266305 (Nutrients, 2018).

Where two headings read alike, the source gives them in different places.

Common to all, as to type: in vitro ADME, human
The subject of data set [1] is Caco-2 TC7 cells. In words: Uptake and apical-to-basolateral transport by Caco-2 TC7 cell monolayers of diluted aqueous fractions from in vitro digestions. The note with it: for Amount found in the cytosolic compartment of Caco-2 cells, percentage of the initial amount at the apical side: 6 h incubation; for Metabolism in the intestinal cells: Caco-2 cells, inferred from total recovery. The protocol: (§1) Caco-2 TC7 cells were grown in DMEM supplemented with 16% (v/v) fetal bovine serum, 1% (v/v) non-essential amino-acids, and 1% (v/v) antibiotics (complete medium), as previously described. Cells were then seeded at a density of 15 000 cells/well, grown on transwell membrane (six-well plate, […] polycarbonate membrane; Becton Dickinson) and incubated in humidified atmosphere of 5% CO2 and 95% air at 37 °C during 21 days to obtain confluent and differentiated cell monolayers.
(§2) The cytotoxicity on Caco-2 cells of the aqueous fractions from in vitro digestions was first assessed to determine the suitable dilution required before adding the aqueous fractions to the apical side of cell monolayers. […] To avoid any interference with DMEM or serum components, the aqueous fractions were diluted in HBSS. Caco-2 cells also received HBSS in both chambers 12 h before the experiments. At the beginning of each experiment, cells were rinsed twice with 1 mL of PBS. Then, 1 mL of diluted aqueous fraction was added to the apical side and 2 mL of HBSS were added at the basolateral side. After an incubation period (2, 4, or 6 h) at 37 °C, both apical and basolateral media were harvested. Cells were then rinsed twice with 1mL of PBS and scrapped in 0.5 mL of iced-cold PBS. All analyses were run in quadruplicate and samples were stored at −80 °C until further analysis.
(§3) Gallic acid was chosen as internal standard as it was not present in the extract. Phenolic compounds were extracted from salivary, gastric and duodenal samples as follows: 0.3 mL of ethanol and 0.2 mL of n-hexane were added to 0.2 mL of sample and the mixture was stirred for 10 min using a vortex blender at maximal speed. After centrifugation (3560 g for 10 min at 4 °C), the lower phase was collected. The solid bottom was re-extracted with 0.3 mL of ethanol and vortexed for 10 min. The second ethanol phase recovered was pooled to the previously collected phase, and then dried using a Speed-Vac®. The dried extracts were dissolved in 200 µL of water. Apical media were directly injected. To concentrate them, basolateral media (1900 µL) were dried using a Speed-Vac®, and the dried residues were dissolved into 80 µL of water. All samples were stored at −80 °C before analysis.
(§4) Following the procedure by Gallardo et al. (2016), 50 µL of internal standard were added to harvested cells (in 500 µL PBS). Samples were then sonicated for 10 min at room temperature and centrifuged (10,000 g for 10 min at 4 °C). Supernatants were collected and evaporated to dryness. The dried residues were dissolved in 50 µL of water and stored at −80 °C before analysis.
(§5) All samples were analyzed by UHPLC-DAD-MS using an Acquity UPLC® system that was linked to both a diode-array detector and a Bruker Daltonics HCT Ultra Ion Traps mass spectrometer equipped with an Electron Spray Ionization (ESI) source operating in negative ion mode. The separation was performed on an Acquity C18 BEH column (50 × 2.1 mm i.d., 1.7 µm) kept at 35 °C. The solvents were (A) water/formic acid (99.5/0.5) and (B) acetonitrile. The proportions of solvent B used were: 0–10 min: 1–20%, 10–12 min: 20–30%, 12–14 min: 30–100%. Along the three steps of the gradient, the flow rate was 0.30, 0.35, and 0.40 mL/min. The injection volume was 1 μL for digestion and apical medium samples, and 10 µL for cells and basolateral samples. Chromatograms were acquired at 280 nm. The spectroscopic detection was performed in the range 200–800 nm with a resolution of 1.2 nm. The concentrations of phenolic compounds Tyr, CA, and p-Cm were estimated from calibration curves (peak area vs. concentration) with R² values greater than 0.99 [26].
(§6) Results were expressed as means ± standard deviations. Differences between means were assessed using ANOVA followed by the post-hoc Tukey test for parametric data. P values under 0.05 were considered to be significant. […]
In general terms: Passage across Caco-2 layers is used to estimate intestinal permeability.

Test in data set [2]: as above
Conditions: human; for recovery at 6 h: Caco-2, 6 h; for Basolateral amount as percentage of initial apical amount (Caco-2 transport): whether from alperujo or alperujo-CD, read-out: Bioavailability (basolateral amount compared with initial apical amount). How it is done:
as §1, §2, §3, §4, §5, §6

For data set [3], the system named is Caco-2 cells. Description: Overall in vitro bioavailability: basolateral amount in Caco-2 cells relative to the initial amount in the test meal before in vitro digestion. The note with it: mean ± SD (n = 4). How it is done:
The in vitro digestion was carried out as previously described. […] The mixture was dispersed with Ultra-Turrax® (Ika) and artificial saliva (2.5 mL, pH 7) was added to the mixture. The sample was incubated for 10 min at 37 °C in a shaking incubator. […] Then, porcine pepsin (2 mL, 40 mg/mL in 0.1 M HCl) was added and the homogenate was incubated at 37 °C in a shaking incubator for 30 min simulating the gastric step. […] Samples were incubated in a shaking incubator at 37 °C for 30 min to complete the digestion process. The final mixture representing the digesta was centrifuged (2500 g for 1 h at 10 °C) to separate the aqueous fraction. […] The cytotoxicity on Caco-2 cells of the aqueous fractions from in vitro digestions was first assessed to determine the suitable dilution required before adding the aqueous fractions to the apical side of cell monolayers. […] To avoid any interference with DMEM or serum components, the aqueous fractions were diluted in HBSS. Caco-2 cells also received HBSS in both chambers 12 h before the experiments. At the beginning of each experiment, cells were rinsed twice with 1 mL of PBS. […] Cells were then rinsed twice with 1mL of PBS and scrapped in 0.5 mL of iced-cold PBS. All analyses were run in quadruplicate and samples were stored at −80 °C until further analysis. Results were expressed as means ± standard deviations. Differences between means were assessed using ANOVA followed by the post-hoc Tukey test for parametric data. […] Two parameters were assessed to express the bioavailability: a) the ratio between the mass of phenolic compounds recovered at the basolateral side and the initial mass added to the apical side, b) the ratio between the mass of phenolic compounds recovered at the basolateral side and the initial mass added to the meal.

The mark [4] stands for this setting: from alperujo-CD, mean ± SD (n = 4), read-out: Bioavailability in Caco-2 cells (recovery on the basolateral side) as percentage of initial apical amount.
[5] abbreviates: from alperujo, mean ± SD (n = 4), read-out: Bioavailability in Caco-2 cells (recovery on the basolateral side) as percentage of initial apical amount.
[6] abbreviates: read-out: Total recovery in the three compartments (apical, basolateral, cells).

In the case of `O=C(O)/C=C/c1ccc(O)cc1` [p-Cm, p-coumaric acid], the “Amount found in the cytosolic compartment of Caco-2 cells, percentage of the initial amount at the apical side” value in data set [1] (from alperujo) stood at 1.6 ± 0.1%; in data set [1] (from alperujo-CD), 1.8 ± 0.2%. In addition, in data set [1], the “Metabolism in the intestinal cells” value was “no metabolism occurred”. In addition, the “Improvement of local absorption by β-CD” value in data set [1] (alperujo-CD vs alperujo, p < 0.05) was 8.5 ± 4.2%. Moreover, the recovery at 6 h in data set [2] (setting [4]) is 48.7 ± 2%; in data set [2] (setting [5]), 40.2 ± 4.1%; in data set [2] (setting [6]), ~100%. Moreover, in data set [2], the Basolateral amount as percentage of initial apical amount (Caco-2 transport) was > 40%. Further, the “Bioavailability in Caco-2 cells as percentage of initial amount in the test meal before in vitro digestion (bioaccessibility × absorption by Caco-2 cells)” value in data set [3] (from alperujo-CD) is recorded as 37.2 ± 3.2 ^a %; in data set [3] (from alperujo-CD, listed as p-coumaric acid), 37.2 ± 3.2%; in data set [3] (from alperujo) it was 32.0 ± 3.2 ^a %; in data set [3] (from alperujo, listed as p-coumaric acid), 32.0 ± 3.2%.
As for `OCCc1ccc(O)cc1` [Tyr, tyrosol], the “Amount found in the cytosolic compartment of Caco-2 cells, percentage of the initial amount at the apical side” value in data set [1] (from alperujo) is on record as 1.6 ± 0.1%; in data set [1] (from alperujo-CD), 1.4 ± 0.1%. Further, the “Metabolism in the intestinal cells” value in data set [1] is listed as “no metabolism occurred”. For the same compound, the recovery at 6 h was 25.2 ± 1.3% in data set [2] (setting [4]), ~22.9% in data set [2] (setting [5]) and ~100% in data set [2] (setting [6]). Moreover, the Basolateral amount as percentage of initial apical amount (Caco-2 transport) in data set [2] is > 20%. Besides, the “Bioavailability in Caco-2 cells as percentage of initial amount in the test meal before in vitro digestion (bioaccessibility × absorption by Caco-2 cells)” value in data set [3] (from alperujo-CD) is recorded as 16.8 ± 0.5 ^a %; in data set [3] (from alperujo-CD, listed as tyrosol) it was 16.8 ± 0.5%; in data set [3] (from alperujo) it was 16.2 ± 0.6 ^a %; in data set [3] (from alperujo, listed as tyrosol) it was 16.2 ± 0.6%.
